This note sets out measurements from US10590123B2, “Pesticidally active amide heterocyclic derivatives with sulphur containing substituents” (SYNGENTA PARTICIPATIONS AG, priority 2014, dated 2020).

Series [1] concerns Spodoptera littoralis (Egyptian Cotton Leaf Worm). Nature of the series: Example B1: Activity against Spodoptera littoralis, sprayed cotton leaf discs. The format is in vivo. The settings on record: foliar, 72 h, application rate 200 ppm, L1 larvae, 3 days after infestation, read-out: control in at least one of the three categories (mortality, anti-feedancy or growth inhibition). As to the method: Example B1: Activity Against Spodoptera littoralis (Egyptian Cotton Leaf Worm)
Cotton leaf discs were placed on agar in 24-well microtiter plates and sprayed with aqueous test solutions prepared from 10′000 ppm DMSO stock solutions. After drying the leaf discs were infested with five L1 larvae. The samples were assessed for mortality, anti-feedant effect, and growth inhibition in comparison to untreated samples 3 days after infestation. Control of Spodoptera littoralis by a test sample is when at least one of mortality, anti-feedant effect, and growth inhibition is higher than the untreated sample.

For series [2] the test system is unchanged. Kind of series: Example B2: Activity against Spodoptera littoralis, systemic via lettuce roots in agar. The conditions noted are these: 144 h, application rate 12.5 ppm, 6 days after infestation, read-out: control in at least one of the three categories (mortality, anti-feedancy or growth inhibition). It counts as in vivo. An excerpt: Example B2: Activity Against Spodoptera littoralis (Egyptian Cotton Leaf Worm)
Test compounds were applied by pipette from 10′000 ppm DMSO stock solutions into 24-well plates and mixed with agar. Lettuce seeds were placed on the agar and the multi well plate was closed by another plate which contains also agar. After 7 days the roots have absorbed the compound and the lettuce has grown into the lid plate. The lettuce leafs were now cut off into the lid plate. Spodoptera eggs were pipetted through a plastic stencil on a humid gel blotting paper and the plate closed with it.
The samples were assessed for mortality, anti-feedant effect and growth inhibition in comparison to untreated samples 6 days after infestation.

In series [3] the test system is Plutella xylostella (Diamond Back Moth). Kind of series: Example B3: Activity against Plutella xylostella, artificial diet. The format is in vivo. The conditions noted are these: 120 h, application rate 200 ppm, L2 larvae, 5 days after infestation, read-out: effect in at least one of the two categories (mortality or growth inhibition). As to the method:
Example B3: Activity Against Plutella xylostella (Diamond Back Moth)
24-well microtiter plates with artificial diet were treated with aqueous test solutions prepared from 10′000 ppm DMSO stock solutions by pipetting. After drying, the plates were infested with L2 larvae (10 to 15 per well). The samples were assessed for mortality and growth inhibition in comparison to untreated samples 5 days after infestation.

The test system of series [4] is Diabrotica Balteata (Corn Root Worm). Nature of the series: Example B4: Activity against Diabrotica balteata, sprayed maize sprouts. The format is in vivo. The settings on record: 96 h, application rate 200 ppm, L2 larvae, 4 days after infestation, read-out: effect in at least one of the two categories (mortality or growth inhibition). As to the method: Example B4: Activity Against Diabrotica Balteata (Corn Root Worm)
Maize sprouts, placed on an agar layer in 24-well microtiter plates were treated with aqueous test solutions prepared from 10′000 ppm DMSO stock solutions by spraying. After drying, the plates were infested with L2 larvae (6 to 10 per well). The samples were assessed for mortality and growth inhibition in comparison to untreated samples 4 days after infestation.

In series [5] the test system is Euschistus heros (Neotropical Brown Stink Bug). Kind of series: Example B7: Activity against Euschistus heros, sprayed soybean leaf. The format is in vivo. The settings on record: 120 h, application rate 200 ppm, N-2 nymphs, 5 days after infestation. As to the method:
Example B7: Activity Against Euschistus heros (Neotropical Brown Stink Bug)
Soybean leaf on agar in 24-well microtiter plates were sprayed with aqueous test solutions prepared from 10′000 ppm DMSO stock solutions. After drying the leaf were infested with N-2 nymphs. The samples were assessed for mortality 5 days after infestation.

For series [6], the system named is Myzus persicae (Green Peach Aphid). Nature of the series: Example B8: Activity against Myzus persicae, sprayed sunflower leaf discs. The format is in vivo. The settings on record: foliar, 144 h, application rate 200 ppm, aphid population of mixed ages, 6 days after infestation. As to the method:
Example B8: Activity Against Myzus persicae (Green Peach Aphid)
Sunflower leaf discs were placed on agar in a 24-well microtiter plate and sprayed with aqueous test solutions prepared from 10′000 ppm DMSO stock solutions. After drying, the leaf discs were infested with an aphid population of mixed ages. The samples were assessed for mortality 6 days after infestation.

Series [7] deals with Thrips tabaci (Onion Thrips). Kind of series: Example B11: Activity against Thrips tabaci, sprayed sunflower leaf discs. It counts as in vivo. The settings on record: foliar, 144 h, application rate 200 ppm, thrips population of mixed ages, 6 days after infestation. As to the method: Example B11: Activity Against Thrips tabaci (Onion Thrips)
Sunflower leaf discs were placed on agar in 24-well microtiter plates and sprayed with aqueous test solutions prepared from 10′000 ppm DMSO stock solutions. After drying the leaf discs were infested with a thrips population of mixed ages. The samples were assessed for mortality 6 days after infestation.

Series [8] concerns Bemisia tabaci (Cotton White Fly). Kind of series: Example B6: Activity against Bemisia tabaci, sprayed cotton leaf discs. The format is in vivo. The settings on record: foliar, 144 h, application rate 200 ppm, adult white flies, 6 days after incubation. As to the method:
Example B6: Activity Against Bemisia tabaci (Cotton White Fly)
Cotton leaf discs were placed on agar in 24-well microtiter plates and sprayed with aqueous test solutions prepared from 10′000 ppm DMSO stock solutions. After drying the leaf discs were infested with adult white flies. The samples were checked for mortality 6 days after incubation.

The test system of series [9] is Frankliniella occidentalis (Western Flower Thrips). Kind of series: Example B5: Activity against Frankliniella occidentalis, sprayed sunflower leaf discs. The format is in vivo. The conditions noted are these: foliar, 168 h, application rate 200 ppm, population of mixed ages, 7 days after infestation. As to the method:
Example B5: Activity Against Frankliniella occidentalis (Western Flower Thrips)
Sunflower leaf discs were placed on agar in 24-well microtiter plates and sprayed with aqueous test solutions prepared from 10′000 ppm DMSO stock solutions. After drying the leaf discs were infested with a Frankliniella population of mixed ages. The samples were assessed for mortality 7 days after infestation.

Bounds are passed on as bounds.

In turn, `CCSc1cc(-c2ccc(C(F)(F)F)cc2)cnc1C(=O)Nc1nnc(C(F)(F)C(F)(F)F)s1` returned a melting point of 254 to 256 °C.

In the case of `CCS(=O)(=O)c1cc(-c2ccc(Cl)cc2)cnc1C(=O)N(C)c1nnc(C(F)(F)C(F)(F)F)s1` [Compound P14], the percent control (mortality, anti-feedant effect or growth inhibition) at 200 ppm in series [1] is at least 80%. The percent control (mortality, anti-feedant effect or growth inhibition) at 12.5 ppm in series [2] is at least 80%. Moreover, the percent effect (mortality or growth inhibition) at 200 ppm in series [3] and in [4] was at least 80% each time. Besides, the mortality at 200 ppm in series [5], in [6] and in series [7] was at least 80% throughout.

Regarding `CCS(=O)(=O)c1cc(-c2cccc(Cl)c2)cnc1C(=O)N(C)c1nnc(C(F)(F)F)s1`, the melting point was in the range of 213 to 215 °C.

Consider `CCS(=O)(=O)c1cc(-c2ncc(F)cc2F)cnc1C(=O)N(C)c1nnc(C(F)(F)F)s1` [Compound P44], for which, in series [1], the percent control (mortality, anti-feedant effect or growth inhibition) at 200 ppm is at least 80%. Besides, the percent control (mortality, anti-feedant effect or growth inhibition) at 12.5 ppm in [2] is at least 80%. In addition, the percent effect (mortality or growth inhibition) at 200 ppm in [3] and in [4] was at least 80% in each case. Besides, the mortality at 200 ppm in series [8], in series [5] and in series [6] was at least 80% throughout.

For the compound `CCS(=O)(=O)c1cc(-c2cc(C(F)(F)F)ccn2)cnc1C(=O)N(C)c1nnc(C(F)(F)F)s1` [Compound P65], the percent control (mortality, anti-feedant effect or growth inhibition) at 200 ppm in series [1] is at least 80%. Moreover, the percent effect (mortality or growth inhibition) at 200 ppm in series [3] and in series [4] was at least 80% each time. Further, the mortality at 200 ppm in series [5], in series [6] and in [7] was at least 80% each time.

`CCS(=O)(=O)c1cc(-c2cc(F)cc(F)c2)cnc1C(=O)N(C)c1nnc(C(F)(F)C(F)(F)F)s1` yielded a melting point of 159 to 161 °C.

Take `CCS(=O)(=O)c1cc(-c2nccc(C(F)(F)F)n2)cnc1C(=O)N(C)c1nnc(C(F)(F)F)s1` [Compound P41]: in [1], the percent control (mortality, anti-feedant effect or growth inhibition) at 200 ppm is at least 80%. In addition, in series [2], the percent control (mortality, anti-feedant effect or growth inhibition) at 12.5 ppm was at least 80%. The percent effect (mortality or growth inhibition) at 200 ppm in series [3] and in [4] was at least 80% each time. In addition, the mortality at 200 ppm in [8], in series [5] and in [6] was at least 80% each time.

Take `CCS(=O)(=O)c1cc(-c2ccc(Cl)cc2)cnc1C(=O)N(C)c1nnc(C(F)(F)F)s1` [Compound P2, 5-(4-chlorophenyl)-3-ethylsulfonyl-N-methyl-N-[5-(trifluoromethyl)-1,3,4-thiadiazol-2-yl]pyridine-2-carboxamide]: the percent control (mortality, anti-feedant effect or growth inhibition) at 200 ppm in series [1] was at least 80%. Further, the percent control (mortality, anti-feedant effect or growth inhibition) at 12.5 ppm in series [2] was at least 80%. Also, the percent effect (mortality or growth inhibition) at 200 ppm in series [3] and in [4] was at least 80% throughout. Also, the mortality at 200 ppm in series [9] and in series [8] was at least 80% in each case.

For the compound `CCS(=O)(=O)c1cc(-c2ccnc(F)c2)cnc1C(=O)N(C)c1nnc(C(F)(F)F)s1` [Compound P56], the percent control (mortality, anti-feedant effect or growth inhibition) at 200 ppm in [1] was at least 80%. Moreover, in series [2], the percent control (mortality, anti-feedant effect or growth inhibition) at 12.5 ppm was at least 80%. In addition, the percent effect (mortality or growth inhibition) at 200 ppm in series [3] and in series [4] was at least 80% throughout. For the same compound, the mortality at 200 ppm in [8], in [5] and in series [6] was at least 80% each time.

With `CCSc1cc(-c2ccc(Cl)cc2)cnc1C(=O)Nc1nnc(C(F)(F)C(F)(F)F)s1`, the melting point is 184 to 187 °C.

Consider `CCS(=O)(=O)c1cc(-c2ccc(C#N)cc2)cnc1C(=O)N(C)c1nnc(C(F)(F)F)s1` [Compound P28], for which the percent control (mortality, anti-feedant effect or growth inhibition) at 200 ppm in [1] was at least 80%. In series [2], the percent control (mortality, anti-feedant effect or growth inhibition) at 12.5 ppm is at least 80%. Besides, the percent effect (mortality or growth inhibition) at 200 ppm in [3] and in series [4] was at least 80% each time. Besides, the mortality at 200 ppm in [8], in [5] and in series [6] was at least 80% in each case.

With `CCS(=O)(=O)c1cc(-c2cc(F)cc(F)c2)cnc1C(=O)N(C)c1nnc(C(F)(F)F)s1` [Compound P35], the percent control (mortality, anti-feedant effect or growth inhibition) at 200 ppm in series [1] is at least 80%. Also, in series [2], the percent control (mortality, anti-feedant effect or growth inhibition) at 12.5 ppm was at least 80%. For the same compound, the percent effect (mortality or growth inhibition) at 200 ppm in [3] and in [4] was at least 80% each time. Besides, the mortality at 200 ppm in [8], in series [5] and in series [6] was at least 80% throughout.

For the compound `CCS(=O)(=O)c1cc(-c2ccc(F)cc2F)cnc1C(=O)N(C)c1nnc(C(F)(F)F)s1` [Compound P25], the percent control (mortality, anti-feedant effect or growth inhibition) at 200 ppm in [1] is at least 80%. In series [2], the percent control (mortality, anti-feedant effect or growth inhibition) at 12.5 ppm was at least 80%. In addition, the percent effect (mortality or growth inhibition) at 200 ppm in series [3] and in [4] was at least 80% in each case. In addition, the mortality at 200 ppm in series [8], in series [5] and in series [6] was at least 80% in each case.

Turning to `CCS(=O)(=O)c1cc(-c2ccc(F)cc2)cnc1C(=O)N(C)c1nnc(C(F)(F)F)s1` [Compound P32], in series [1], the percent control (mortality, anti-feedant effect or growth inhibition) at 200 ppm was at least 80%. The percent control (mortality, anti-feedant effect or growth inhibition) at 12.5 ppm in series [2] is at least 80%. The percent effect (mortality or growth inhibition) at 200 ppm in series [3] and in series [4] was at least 80% each time. For the same compound, the mortality at 200 ppm in series [9], in [8], in series [5] and in [6] was at least 80% each time.

For the compound `CCS(=O)(=O)c1cc(-c2cc(F)cc(F)c2)cnc1C(=O)Nc1nnc(C(F)(F)C(F)(F)F)s1`, the melting point lay in the range of 242 to 244 °C.

In the case of `CCS(=O)(=O)c1cc(-c2ccc(C(F)(F)F)cc2)ccc1C(=O)N(C)c1nnc(C(F)(F)F)s1`, the melting point is 174 to 176 °C.

Consider `CCS(=O)(=O)c1cc(-c2ccc(Cl)cn2)cnc1C(=O)N(C)c1nnc(C(F)(F)F)s1` [Compound P52], for which, in series [1], the percent control (mortality, anti-feedant effect or growth inhibition) at 200 ppm was at least 80%. Also, the percent control (mortality, anti-feedant effect or growth inhibition) at 12.5 ppm in [2] was at least 80%. Moreover, the percent effect (mortality or growth inhibition) at 200 ppm in series [3] and in series [4] was at least 80% in each case. Besides, the mortality at 200 ppm in series [9], in series [8], in series [5] and in [6] was at least 80% in each case.

What is called melting point is the temperature, or range, at which the solid turns liquid. For orientation: mortality means the share of the test organisms that died. Low values mean a weak lethal effect, high ones a strong lethal effect.
